ChEMBL document CHEMBL1201862, “PubChem BioAssay data set” (2004)
Calls of active or inactive are those of the source.

Assays:
[1] = biological target: Beta-galactosidase (Escherichia coli, UniProt Q8VNN2); assay: Dose response counterscreen for EBI2 assay utilizing the enzyme, b-galactosidase.; type: functional
[2] = system: Streptococcus sp. 'group A'; assay: growth inhibition of control SK(-) GAS strain, dose response, counter-screen for streptokinase expression inhibitor project, luminescence, kanamycin, BacTiterGlo, confirmation (AID 1900); type: functional, organism-based
[3] = Luminescence Cell-Based Dose Retest to Confirm Inhibitors of Cancer Stem Cells. [Related pubchem assays (depositor defined):AID2717, AID2721]; type: functional; conditions: Homo sapiens
[4] = Shn3 3'UTR reporter inhibitors, dose response, cell-based, Clone20 osteoblasts, firefly luciferase, cherry-picked (AID 624132); type: functional;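 also: firefly luciferase luminescence from reporter carrying the Shn3 3'UTR in osteoblasts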
[5] = reduction of Shn3 3'UTR firefly luciferase signal, dose response, Schnurri-3 inhibitor project, cell-based, Clone20 osteoblasts, cherry-pick, set 2 (AID 720490); type: functional;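 also: actives lower the luminescence signal as inhibitors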
[6] = system: Streptococcus; assay: Group A Streptococcus viability loss, dose response, counter-screen for streptokinase expression inhibitor project, luminescence, BacTiterGlo (AID 1915); type: functional, organism-based;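 also: potency for reduction of bacterial viability or growth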
[7] = HepG2 cell cytotoxicity, dose response, cytotoxicity control for Shn3 inhibitor project, CellTiter-Glo, cherry-picked (AID 624134); type: functional, cell-based
[8] = biological target: T1, Streptokinase A (Streptococcus pyogenes serotype M1, UniProt P10520); assay: S. pyogenes streptokinase expression inhibitors, potency, dose response, plasminogen activation absorbance, OD405 (AID 1914); type: functional, Streptococcus pyogenes M1 GAS;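 also: secreted streptokinase activity via plasminogen activation per viability signal from cell pellet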
T1 sequence (P10520 whole entry): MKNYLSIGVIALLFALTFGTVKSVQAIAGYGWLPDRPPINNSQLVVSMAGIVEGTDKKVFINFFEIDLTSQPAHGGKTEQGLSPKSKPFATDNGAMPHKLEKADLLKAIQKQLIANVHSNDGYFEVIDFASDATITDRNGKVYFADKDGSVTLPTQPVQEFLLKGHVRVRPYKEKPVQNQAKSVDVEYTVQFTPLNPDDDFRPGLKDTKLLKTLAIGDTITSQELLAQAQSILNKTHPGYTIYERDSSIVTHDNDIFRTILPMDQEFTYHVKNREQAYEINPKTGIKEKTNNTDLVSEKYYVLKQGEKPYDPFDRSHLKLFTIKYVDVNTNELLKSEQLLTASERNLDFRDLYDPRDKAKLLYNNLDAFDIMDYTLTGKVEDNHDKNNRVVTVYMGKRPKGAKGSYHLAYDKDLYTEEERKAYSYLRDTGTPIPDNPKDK

[9] = biological target: T2, Oxysterols receptor LXR-beta (Homo sapiens, UniProt P55055); type: functional, cell-based;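 also: agonist activity at LXR measured by a cell-based luminescence readout across a dose range, run as a counterscreen for daf-12 agonists; HEK293 cells with Gal4-LXR fusion and GAL4-driven luciferase reporter; potency for activation of Gal4-LXR reporter so compounds are agonists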
T2 sequence (P55055 whole entry): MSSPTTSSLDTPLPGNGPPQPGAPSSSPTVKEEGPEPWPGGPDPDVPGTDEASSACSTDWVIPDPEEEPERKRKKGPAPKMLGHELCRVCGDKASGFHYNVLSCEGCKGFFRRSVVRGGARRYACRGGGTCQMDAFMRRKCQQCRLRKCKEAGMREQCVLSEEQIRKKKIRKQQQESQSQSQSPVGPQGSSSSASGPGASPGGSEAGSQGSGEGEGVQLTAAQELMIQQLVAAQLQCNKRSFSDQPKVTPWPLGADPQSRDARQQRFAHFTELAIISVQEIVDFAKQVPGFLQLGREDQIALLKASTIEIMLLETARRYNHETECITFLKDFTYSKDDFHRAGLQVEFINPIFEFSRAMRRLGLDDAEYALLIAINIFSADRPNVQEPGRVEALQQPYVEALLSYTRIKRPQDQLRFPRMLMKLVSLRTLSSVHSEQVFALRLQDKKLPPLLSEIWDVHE

[10] = biological target: Major prion protein (Homo sapiens, UniProt P04156); type: functional, cell-based
[11] = cells
[12] = biological target: Paired box protein Pax-8 (Homo sapiens, UniProt Q06710); assay: inhibitors of PAX8-driven TPO luciferase reporter, dose response, RMG-I cells, cherry-pick (AID 687027); type: functional, cell-based;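 also: luciferase reporter driven by Pax8 target thyroperoxidase promoter measured by SteadyGlo luminescence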
[13] = cytotoxicity in COV362 ovarian cancer cells, dose response, cytotoxicity control for PAX8 inhibitor project, cell-based, plate reader, dry powder, SA12 (AID 743144); type: functional
[14] = NIH:OVCAR-3 ovarian cancer cell cytotoxicity, dose response, PAX8 inhibitor project, plate reader, dry powder samples (AID 743044); type: functional, cell-based
[15] = IGROV1 ovarian cancer cell cytotoxicity, dose response, PAX8 inhibitor project, plate reader, dry powder samples (AID 743043); type: functional, cell-based; conditions: IGROV-1
[16] = PAX5 activity inhibitors, dose response, selectivity assay for PAX8 inhibitor project, cell-based, plate reader, dry powder samples (AID 743047); type: functional;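 also: HEK293 cells carrying a Pax5 driven CD19 promoter luciferase reporter; potency of inhibitors that lower reporter luminescence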
[17] = cytotoxicity in OVCAR4 cells, dose response, cytotoxicity control for PAX8 inhibitor project, cell-based, plate reader, dry powder, SA11 (AID 743150); type: functional; conditions: OVCAR-4
[18] = cytotoxicity in COV434 cells, dose response, cytotoxicity control for PAX8 inhibitor project, cell-based, plate reader, dry powder, SA7 (AID 743145); type: functional
[19] = cytotoxicity dependent on PAX8, dose response, cell-based, plate reader, dry powder (AID 743049); type: functional
[20] = PAX2 cell-based inhibition, dose response, selectivity assay for PAX8 inhibitor project, plate reader, dry powder samples (AID 743048); type: functional;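 also: HEK293 cells carrying a WT1 promoter luciferase reporter driven by expressed Pax2; potency is for inhibition of Pax2 driven reporter signal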
[21] = cytotoxicity in OV-90 ovarian cancer cells, dose response, PAX8 inhibitor project, cell-based, plate reader, dry powder, SA8 (AID 743149); type: functional
[22] = biological target: Fructose-bisphosphate aldolase (Mycobacterium tuberculosis, UniProt P9WQA3); assay: Fluorescence-based biochemical high throughput dose response assay for inhibitors of the fructose-bisphosphate aldolase (FBA) of M. tuberculosis.; type: functional
[23] = biological target: Dual specificity tyrosine-phosphorylation-regulated kinase 1A (Rattus norvegicus, UniProt Q63470); type: biochemical, Homo sapiens
[24] = ZM109 Env clade C HIV-1 fusion inhibitors, dose response, HeLa effector, CEM target cells, luciferase, cherry-pick (AID 652058); type: functional, cell-based
[25] = biological target: Melanocortin receptor 4 (Homo sapiens, UniProt P32245); assay: MC4R antagonist potency on cAMP, dose response, cell-based, TR-FRET, biased antagonists (AID 602298); type: functional;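 also: antagonist potency against agonist-stimulated cAMP production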
[26] = biological target: T3, Sphingosine 1-phosphate receptor 4 (Homo sapiens, UniProt O95977); assay: Fluorescence dose response cell-based high throughput screening assay for antagonists of the Sphingosine 1-Phosphate Receptor 4 (S1P4). [Related pubchem assays: 1524 (Confirmation in triplicates.), 1510 (Primary screen.)]; type: functional
T3 sequence (O95977 whole entry): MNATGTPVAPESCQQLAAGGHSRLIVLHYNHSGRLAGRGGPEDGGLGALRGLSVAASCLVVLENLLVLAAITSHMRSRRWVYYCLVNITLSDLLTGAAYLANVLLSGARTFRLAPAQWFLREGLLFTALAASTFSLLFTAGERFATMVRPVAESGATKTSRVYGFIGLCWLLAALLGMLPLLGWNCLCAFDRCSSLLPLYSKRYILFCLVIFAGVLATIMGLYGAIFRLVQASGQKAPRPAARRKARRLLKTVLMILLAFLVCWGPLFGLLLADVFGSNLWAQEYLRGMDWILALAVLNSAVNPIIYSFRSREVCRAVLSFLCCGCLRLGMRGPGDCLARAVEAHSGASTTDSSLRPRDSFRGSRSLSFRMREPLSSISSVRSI

[27] = CEM21 lymphoblast cell cytotoxicity, dose response, cytotoxicity control for viral fusion inhibitor project, CellTiter-Glo luminescence, cherry-picked (AID 652042); type: functional, cell-based;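 also: potency for signal decrease meaning cytotoxicity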
[28] = cells; type: functional, cell-based; conditions: HEK-CNG
[29] = biological target: T4, Polyadenylate-binding protein 1 (Homo sapiens, UniProt P11940); assay: PABP1 MLLE–PAM2 interaction inhibitors, dose response, miRNA deadenylation inhibitor project, biochemical, fluorescence polarization, Cy5-PAM2 peptide, secondary (AID 602260); type: functional; conditions: read-out: IC50_Mean
[30] = off-target signal loss in HeLa-CEM21 co-culture – HeLa F-luc CTL cells, cherry-picked, counter-screen for HIV-1 Env fusion inhibitor project, dose response (AID 652040); type: functional, cell-based;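 also: potency for signal decrease marking cytotoxic or nonspecific inhibition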
[31] = biological target: Sphingosine 1-phosphate receptor 1 (Homo sapiens, UniProt P21453); type: functional;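 also: Tango beta-arrestin reporter U2OS cells stimulated with S1P near its EC80; inhibitor potency meaning antagonism of receptor activation by the natural agonist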
[32] = inhibitors of clade B AD8 Env fusion, dose response, cell-based, cherry-pick (AID 652062); type: functional;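 also: luciferase signal from cell-cell fusion driven by HIV-1 clade B AD8 Env; potency is for inhibitors of fusion seen as a drop in luminescence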
[33] = nonselective inhibitors of cellular cAMP signaling, dose response, counter-screen for MC4R biased antagonist project, cell-based, TR-FRET cAMP detection (AID 602305); type: functional;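 also: U2OS cells stimulated with forskolin near its EC80 as the cAMP inducer; potency is for inhibition of forskolin-stimulated cAMP signaling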
[34] = inhibitors of HIV Env-driven cell fusion, dose response, cherry-pick (AID 652057); type: functional, cell-based
[35] = biological target: T4, Polyadenylate-binding protein 1; assay: PABP1 MLLE–PAM2 binding inhibitor potency, dose response, biochemical, fluorescence polarization, FITC-PAM2 peptide (AID 602259); type: functional; conditions: read-out: IC50_Mean
[36] = biological target: Galanin receptor type 3 (Homo sapiens, UniProt O60755); assay: Fluorescence-based cell-based primary high throughput dose response assay to identify antagonists of the Galanin Receptor 3 (GalR3).; type: functional
[37] = biological target: Long-chain-fatty-acid--AMP ligase FadD28 (Mycobacterium tuberculosis, UniProt P9WQ59); assay: Fluorescence polarization aasay to screen for inhibitors that compete for the binding of FadD28 to a bisubstrate Measured in Biochemical System Using Plate Reader - 2147-01_Inhibitor_Dose_CherryPick_Activity.; type: functional, Mycobacterium tuberculosis H37Rv
[38] = T. cruzi intracellular amastigote growth inhibition, dose response, imaging, CA-I/72 strain, bovine embryo skeletal muscle, dry powder (AID 651885); type: functional, cell-based
[39] = intracellular Trypanosoma cruzi inhibitors in host cells – cell-based, plate reader, cherry-pick samples, set 3, dose response (AID 651818); type: functional;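 also: compounds incubated with infected cells for about four days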
[40] = T. cruzi growth inhibition in host cells, dose response, cell-based, plate reader, dry powder, set 2 (AID 652275); type: functional
[41] = biological target: 1-phosphatidylinositol 4,5-bisphosphate phosphodiesterase beta-3 (Homo sapiens, UniProt Q01970); assay: Fluorescence-based biochemical high throughput dose response assay to identify inhibitors of phospholipase C isozymes (PLC-B3).
[42] = biological target: 1-phosphatidylinositol 4,5-bisphosphate phosphodiesterase gamma-1 (Homo sapiens, UniProt P19174); assay: Counterscreen for inhibitors of phospholipase C isozymes (PLC-B3): Fluorescence-based biochemical high throughput dose response assay to identify inhibitors of phospholipase C isozymes (PLC-gamma1).

For `COc1ccc(-c2ccc(-c3nc4ccc(C)cn4c3NC3CCCCC3)cc2OC)cc1`, the IC50 [1] was 77.5 µM (inactive).
For `Cc1cccc(NS(=O)(=O)c2ccc(C3CCCCC3)cc2)c1`, the EC50 [2] was 6.43 µM (active), the AC50 [3] was 5.27 µM (active) and the AC50 [4] was 5.13 µM (active). The AC50 [5] was 4.66 µM (active), the EC50 [6] was 6.98 µM (active) and the AC50 [7] was > 70 µM (inactive). The EC50 [8] was 5.02 µM (active).
For `CCOC(=O)c1cnc(SCCc2ccccc2)nc1N`, the EC50 [9] was > 67.5 µM (inactive).
For `Cc1ccc(-n2nc3c(SCCN4CCOCC4)nnc(C)c3c2C)cc1`, the IC50 [10] was 12.8 µM (inactive) and the IC50 [11] was > 138 µM (inactive).
With `Cn1c(CCN2CCCC2)nc2cc(NS(=O)(=O)c3ccc(Cl)cc3)ccc21` the AC50 [12] was 6.57 µM (active), the AC50 [13] was 20.2 µM (active) and the AC50 [14] was 18.9 µM (active). For the same molecule, the AC50 [15] was 26.9 µM (active), the AC50 [16] was 52.5 µM (active) and the AC50 [17] was 16.8 µM (active). For the same molecule, the AC50 [18] was 46.1 µM (active), the AC50 [19] was 12.8 µM (active) and the AC50 [20] was 72.5 µM (active). The AC50 [21] was > 100 µM (inactive).
With `COc1ccc(CNCc2ccc(OC)c3ccccc23)cc1` the IC50 [22] was > 10 µM (inactive).
For `NC(=S)c1cn([C@@H]2O[C@H](CO)[C@@H](O)[C@H]2O)c2ncnc(N)c12`, the AC50 [23] was 0.158 µM (active), the AC50 [12] was 0.294 µM (active) and the AC50 [24] was < 0.26 µM (active). For the same molecule, the IC50 [25] was > 64.6 µM (inactive), the IC50 [26] was 0.42 µM (active) and the AC50 [27] was 0.344 µM (active). For the same molecule, the EC50 [28] was > 29.9 µM (inactive), the IC50 [29] was > 66 µM (inactive) and the AC50 [30] was < 0.26 µM (active). The IC50 [31] was 1.96 µM (active), the AC50 [32] was < 0.26 µM (active) and the IC50 [33] was > 64.6 µM (inactive). For the same molecule, the AC50 [34] was < 0.26 µM (active), the IC50 [35] was > 66 µM (inactive) and the IC50 [36] was 1.01 µM (active).
In the case of `Cn1c(=O)c2cc(NC(=S)NC3CCCCC3)ccc2n1C/C=C/c1ccccc1`, the AC50 [37] is reported as > 100 µM (inactive).
In the case of `C[C@@H]1CN([C@@H](C)CO)C(=O)c2cccc(NC(=O)c3ccncc3)c2O[C@H]1CN(C)CC1CCCCC1`, the AC50 [24] is reported as 0.953 µM (active), the AC50 [32] is reported as 1.96 µM (active) and the IC50 [38] is reported as 0.74 µM (active). For the same molecule, the AC50 [39] was 0.636 µM (active), the AC50 [34] was 0.4 µM (active) and the AC50 [40] was 0.182 µM (active).
With `CCc1cnc(N2[C@@H](C#N)[C@@H](c3ccc(C#CC(C)C)cc3)[C@@H]2CO)s1` the AC50 [12] was 15.4 µM (active), the AC50 [13] was > 70 µM (inactive) and the AC50 [16] was 29.4 µM (active). For the same molecule, the AC50 [17] was 23.6 µM (active), the AC50 [19] was 35.3 µM (active) and the AC50 [20] was 24.7 µM (active). The AC50 [21] was 39.6 µM (active).
In the case of `CC[C@H]1C=C[C@@H](C(=O)NS(=O)(=O)c2ccc(C)cc2)N(C(C)=O)C1`, the IC50 [41] is reported as > 122 µM (inactive) and the IC50 [42] is reported as > 122 µM (inactive).
